From patent US20020193425A1, “Cancer chemopreventative compounds and compositions and methods of treating cancers” (priority 2001, published 2002)

What was measured:
Format in all cases: cell-based
[1] = test system: HL-60 (human promyelocytic) cells; experiment: HL-60 cell proliferation assay of quassinoids, [3H]thymidine incorporation; conditions: for IC50: Homo sapiens, 4-day incubation, [3H]thymidine incorporation, read-out: inhibition of proliferation (IC50); for selectivity index: ratio of cytotoxic IC50 over antiproliferative IC50
Description: Induction of differentiation was determined by the ability of treated cells to produce superoxide anions (nitroblue tetrazolium (NBT)-reduction), a functional marker of mature macrophages or granulocytes. Proliferation capacity is equivalent to cell growth and was measured by incorporation of [3H]thymidine into DNA over a period of 18 h, and cytotoxic activity was evaluated by the loss of membrane integrity as shown by trypan blue exclusion. […] Although members of the brusatol and glaucarubolone series were active, when comparing members of both series that varied only in the positioning of the epoxymethano bridge, great differences were noted, as shown with yadianzolide C (5) and glaucarubolone (24), and analogues 4 (brusatol series) and 32 (glaucarubolone series).
HL-60 (human promyelocytic) cells were tested using a 4-day incubation protocol. In brief, cells in log phase (approximately 10^6 cells/mL) were diluted to […] and preincubated overnight (18 h) in 24-well plates to allow cell-growth recovery. Then, samples dissolved in DMSO were added, keeping the final DMSO concentration at 0.1% (v/v). Control cultures were treated with the same concentration of DMSO. After 4 days of incubation, the cells were analyzed to determine the percentage of cells undergoing maturation as determined by NBT reduction. Concomitantly, the effect on viability and proliferation of HL-60 cells was determined. In each experiment, 1α, 25-dihydroxyvitamin D3 (EC50=0.01 μM) and brusatol (EC50=0.07 μM) were used as reference controls. EC50 and IC50 values were calculated using 5-7 test concentrations (in duplicate), and consistent results were obtained, indicating the data reported for the related quassinoids are reliable.
(3) Cell Proliferation Assay. […] Cells were then collected on glass fiber filters (90×120 mm; Wallac, Turku, Finland) using a TOMTEC Harvester 96®.

[2] = test system: c-Myc oncoprotein, RS4;11; experiment: c-Myc oncoprotein expression, western blotting
Description: (§1) The expression of c-Myc was assessed by immunoblots as previously described. In brief, cells (10^6) were treated and harvested at various time intervals, and whole-cell pellets were lysed with detergent lysis buffer (1 ml/10^7 cells, 50 mM Tris-HCl buffer, pH 8.0, 150 mM NaCl, 1 mM DTT, 0.5 mM EDTA, 1% Nonidet® P40, 0.5% sodium deoxycholate, 0.1% sodium dodecylsulfate, 100 μg/ml phenylmethylsulfonyl fluoride, 1 μg/ml aprotinin, 2 μg/ml leupeptin and 100 μM sodium vanadate) to obtain protein lysates. Protein concentrations were quantified using a bicinchoninic acid kit. Since c-Myc is a labile protein, cell lysates were not frozen, but stored at 4° C., until all protein lysates were prepared for a particular cell line, and then western blots were performed immediately. Total protein ([…]) was separated by 10% SDS-PAGE, electroblotted to PVDF membranes, and blocked overnight with 5% nonfat dry milk. The membrane was incubated with a solution of the primary antibody (2.5 μg/ml), prepared in 1% blocking solution, for 2 h at room temperature, washed three-times for 15 min with PBS-T (PBS with 0.1%, v/v, Tween 20), and incubated with a 1:2500 dilution of horseradish peroxidase-conjugated secondary antibody for 30 min at 37° C. Blots were again washed three-times for 10 min each in PBS-T and developed by enhanced chemiluminescence (Amersham). Membranes were exposed to Kodak Biomax film and the resulting film was analyzed using Kodak 1D Image Analysis software. Membranes were then stripped and reprobed for the quantification of bactin.
(§2) Cells were treated with solvent (0.1% v/v DMSO, control), brusatol (25 ng/ml) or bruceantin (10 ng/ml) for 4 or 24 h, then analyzed by western blotting. Membranes were probed for c-Myc, and then stripped and probed for β-actin as an internal control.
(§3) Cells were treated with brusatol (25 ng/ml) or bruceantin (10 ng/ml) for 4 or 24 h, and then analyzed for c-Myc and β-actin expression using western blotting techniques. Results are expressed as percentage of c-Myc oncoprotein of control (0.1%, v/v, DMSO treated cells) values. Results were normalized relative to β-actin.

c-Myc oncoprotein, U937 = experiment: c-Myc oncoprotein expression, western blotting
Description: as §1, §2, §3

c-Myc oncoprotein, K562 = experiment: c-Myc oncoprotein expression, western blotting
Description: as §1, §2, §3

c-Myc oncoprotein, Reh = experiment: c-Myc oncoprotein expression, western blotting
Description: as §1, §2, §3

[3] = test system: c-Myc oncoprotein, Kasumi-1; experiment: c-Myc oncoprotein expression, western blotting
Description: as §1, §2, §3

c-Myc oncoprotein, BV173 = experiment: c-Myc oncoprotein expression, western blotting
Description: as §1, §2, §3

[4] = test system: c-Myc oncoprotein, SUPB13; experiment: c-Myc oncoprotein expression, western blotting
Description: as §1, §2, §3

c-Myc oncoprotein, Daudi = experiment: c-Myc oncoprotein expression, western blotting
Description: as §1, §2, §3

c-Myc oncoprotein, NB4 = experiment: c-Myc oncoprotein expression, western blotting
Description: as §1, §2, §3

Compound: COC(=O)[C@@]12OC[C@]34[C@H]([C@@H](O)[C@@H]1O)[C@@]1(C)CC(=O)C(O)=C(C)[C@@H]1C[C@H]3OC(=O)[C@H](OC(=O)C=C(C)C)[C@@H]24 [compound 1, brusatol]
- IC50 [1]: 70 ± 7 nM
- selectivity index [1]: 2.5 ± 0.3
- c-Myc oncoprotein, percentage of control ([2]; RS4,11, Brusatol (25 ng/ml), 24 h): 10%
- c-Myc oncoprotein, percentage of control ([2]; RS4;11, Brusatol (25 ng/ml), 4 h): 20%
- c-Myc oncoprotein, percentage of control (c-Myc oncoprotein, U937; Brusatol (25 ng/ml), 4 h): 5%
- c-Myc oncoprotein, percentage of control (c-Myc oncoprotein, U937; Brusatol (25 ng/ml), 24 h): 12%
- decrease of c-Myc protein levels (c-Myc oncoprotein, K562; 4 h treatment): 94%
- c-Myc oncoprotein, percentage of control (c-Myc oncoprotein, K562; Brusatol (25 ng/ml), 4 h): 6%
- c-Myc oncoprotein, percentage of control (c-Myc oncoprotein, K562; Brusatol (25 ng/ml), 24 h): 13%
- c-Myc oncoprotein, percentage of control (c-Myc oncoprotein, Reh; Brusatol (25 ng/ml), 4 h): 66%
- c-Myc oncoprotein, percentage of control (c-Myc oncoprotein, Reh; Brusatol (25 ng/ml), 24 h): 32%
- c-Myc oncoprotein, percentage of control ([3]; Brusatol (25 ng/ml), 4 h): 66%
- c-Myc oncoprotein, percentage of control ([3]; Brusatol (25 ng/ml), 24 h): 112%
- c-Myc oncoprotein, percentage of control (c-Myc oncoprotein, BV173; Brusatol (25 ng/ml), 4 h): 22%
- c-Myc oncoprotein, percentage of control (c-Myc oncoprotein, BV173; Brusatol (25 ng/ml), 24 h): 41%
- c-Myc oncoprotein, percentage of control ([4]; Brusatol (25 ng/ml), 4 h): 52%
- c-Myc oncoprotein, percentage of control ([4]; Brusatol (25 ng/ml), 24 h): 41%
- c-Myc oncoprotein, percentage of control (c-Myc oncoprotein, Daudi; Brusatol (25 ng/ml), 4 h): 79%
- c-Myc oncoprotein, percentage of control (c-Myc oncoprotein, Daudi; Brusatol (25 ng/ml), 24 h): 10%
- c-Myc oncoprotein, percentage of control (c-Myc oncoprotein, NB4; Brusatol (25 ng/ml), 4 h): 0%
- c-Myc oncoprotein, percentage of control (c-Myc oncoprotein, NB4; Brusatol (25 ng/ml), 24 h): 0%

Compound: COC(=O)[C@@]12OC[C@]34[C@H]([C@@H](O)[C@@H]1O)[C@@]1(C)CC(=O)C(O)=C(C)[C@@H]1C[C@H]3OC(=O)[C@H](OC(=O)/C=C(\C)C(C)C)[C@@H]24 [compound 2, bruceantin]
- IC50 [1]: 40 ± 3 nM
- selectivity index [1]: 1.0 ± 0.2
- c-Myc oncoprotein, percentage of control ([2]; RS4;11, Bruceantin (10 ng/ml), 4 h): 140%
- c-Myc oncoprotein, percentage of control ([2]; RS4;11, Bruceantin (10 ng/ml), 24 h): 6%
- c-Myc oncoprotein, percentage of control (c-Myc oncoprotein, U937; Bruceantin (10 ng/ml), 4 h): 40%
- c-Myc oncoprotein, percentage of control (c-Myc oncoprotein, U937; Bruceantin (10 ng/ml), 24 h): 44%
- c-Myc oncoprotein, percentage of control (c-Myc oncoprotein, K562; Bruceantin (10 ng/ml), 4 h): 2%
- c-Myc oncoprotein, percentage of control (c-Myc oncoprotein, K562; Bruceantin (10 ng/ml), 24 h): 12%
- c-Myc oncoprotein, percentage of control (c-Myc oncoprotein, Reh; Bruceantin (10 ng/ml), 4 h): 44%
- c-Myc oncoprotein, percentage of control (c-Myc oncoprotein, Reh; Bruceantin (10 ng/ml), 24 h): 40%
- c-Myc oncoprotein, percentage of control ([3]; Bruceantin (10 ng/ml), 4 h): 70%
- c-Myc oncoprotein, percentage of control ([3]; Bruceantin (10 ng/ml), 24 h): 87%
- c-Myc oncoprotein, percentage of control (c-Myc oncoprotein, BV173; Bruceantin (10 ng/ml), 4 h): 28%
- c-Myc oncoprotein, percentage of control (c-Myc oncoprotein, BV173; Bruceantin (10 ng/ml), 24 h): 12%
- c-Myc oncoprotein, percentage of control ([4]; Bruceantin (10 ng/ml), 4 h): 42%
- c-Myc oncoprotein, percentage of control ([4]; Bruceantin (10 ng/ml), 24 h): 63%
- c-Myc oncoprotein, percentage of control (c-Myc oncoprotein, Daudi; Bruceantin (10 ng/ml), 4 h): 67%
- c-Myc oncoprotein, percentage of control (c-Myc oncoprotein, Daudi; Bruceantin (10 ng/ml), 24 h): 2%
- c-Myc oncoprotein, percentage of control (c-Myc oncoprotein, NB4; Bruceantin (10 ng/ml), 4 h): 0%
- c-Myc oncoprotein, percentage of control (c-Myc oncoprotein, NB4; Bruceantin (10 ng/ml), 24 h): 0%
